According to patent US20260356819A1, “OXOISOINDOLINYL-SUBSTITUTED […] DERIVATIVE AND USE THEREOF” (GLUETACS THERAPEUTICS (SHANGHAI) CO., LTD., priority 2023, published 2026):

How the values were obtained:
[1] = tested on: MV-4-11 cells; assay: Inhibition of proliferation of myeloid monocytic leukemia cells MV-4-11 (cell viability assay, 96 h); assay type: cell-based, human; conditions: read-out: inhibitory activity (IC50) against tumor cells proliferation, MV-4-11
Method: (§1) The tumor cells used herein were cultured in a cell culture medium listed in table 2 at 37 °C in an incubator with 5% CO2. Prior to experimentation, all cell lines used were correctly identified by STR profiling, and tested negative for Mycoplasma contamination using a Mycoplasma detection kit through routine screenings.
(§2) The IC50 values of the compounds of the present disclosure (including the compounds in Table 1, and Examples 1-498) were determined using the CellTiter-Meiluncell Luminescent Cell Viability Assay Kit from Dalian Meilun Biotech Co., Ltd. The detailed procedure is as follows: Tumor cells were seeded in 96-well cell culture plates at the densities specified in Table 3. On the following day, the test compounds of the present disclosure were subjected to serial dilution. […] Subsequently, 0.5 μL of the test compound dilution was transferred into the 96-well plate containing the cells, with each well containing 100 μL of cell culture medium. […] Into the 96-well plate, the diluted test compounds and corresponding detection reagents were added, resulting in final test compound concentrations of 500 nM and 10 nM, respectively. The experimental procedure is described below using the diluted 2 μM test compound as an example.
(§3) 0.5 μL of the aforementioned diluted compound of the present disclosure (including the compounds in Table 1, and Examples 1-498) was added to the seeded cells in 100 μL of medium, yielding a final test compound concentration of 10 nM. After the cells were treated with the compounds of the present disclosure for a specified period, the cell viability assay reagent was added to the culture medium according to the kit's instructions to determine cell viability. […] All controls were treated using the same procedure as the compounds of the present disclosure. The growth inhibition curves for the compounds of the present disclosure were plotted using Prism GraphPad software, and the IC50 values were calculated therefrom.

[2] = biological target: T1, WEE1 (Homo sapiens, UniProt P30291+Q96SW2); assay: Western blot degradation of WEE1 in hPBMCs (24 h); assay type: cell-based; conditions: compounds at 50 nM and 500 nM
T1 construct: The supernatant was aspirated as the extracted total cell protein; endogenous in cells; host or cells: human peripheral blood mononuclear cells (hPBMCs)
Procedure, shortened: (§4)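 hPBMCs (1×10^6 cells/mL) exposed to compound at 50 nM and 500 nM for 24 h, DMSO as reference. Lysates run on SDS-PAGE and immunoblotted. Band grayscale normalized to internal control gives % protein remaining; DC50 from fitted concentration-response of band intensity versus DMSO.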

[3] = biological target: T2, IKZF1 (Homo sapiens, UniProt Q13422+Q96SW2); assay: Western blot degradation of IKZF1 in hPBMCs (24 h); assay type: cell-based; conditions: compounds at 50 nM and 500 nM
T2 construct: The supernatant was aspirated as the extracted total cell protein; endogenous in cells; host or cells: human peripheral blood mononuclear cells (hPBMCs)
Procedure, shortened: as §4

[4] = biological target: T3, IKZF2 (Homo sapiens, UniProt Q96SW2+Q9UKS7); assay: Western blot degradation of IKZF2 in hPBMCs (24 h); assay type: cell-based; conditions: compounds at 50 nM and 500 nM
T3 construct: The supernatant was aspirated as the extracted total cell protein; endogenous in cells; host or cells: human peripheral blood mononuclear cells (hPBMCs)
Procedure, shortened: as §4

[5] = biological target: T4, IKZF3 (Homo sapiens, UniProt Q96SW2+Q9UKT9); assay: Western blot degradation of IKZF3 in hPBMCs (24 h); assay type: cell-based; conditions: compounds at 50 nM and 500 nM
T4 construct: The supernatant was aspirated as the extracted total cell protein; endogenous in cells; host or cells: human peripheral blood mononuclear cells (hPBMCs)
Procedure, shortened: as §4

[6] = biological target: T5, CK1α (Homo sapiens, UniProt P48729+Q96SW2); assay: Western blot degradation of CK1α in hPBMCs (24 h); assay type: cell-based; conditions: compounds at 50 nM and 500 nM
T5 construct: The supernatant was aspirated as the extracted total cell protein; endogenous in cells; host or cells: human peripheral blood mononuclear cells (hPBMCs)
Procedure, shortened: as §4

[7] = biological target: T6, GSPT1 (Homo sapiens, UniProt P15170+Q96SW2); assay: Western blot degradation of GSPT1 in hPBMCs (24 h); assay type: cell-based; conditions: compounds at 50 nM and 500 nM
T6 construct: The supernatant was aspirated as the extracted total cell protein; endogenous in cells; host or cells: human peripheral blood mononuclear cells (hPBMCs)
Procedure, shortened: as §4

[8] = tested on: MM.1S cells; assay: Inhibition of proliferation of multiple myeloma cells MM.1S (cell viability assay, 96 h); assay type: cell-based, human; conditions: read-out: inhibitory activity (IC50) against tumor cells proliferation, MM.1S
[9] = tested on: Jurkat cells; assay: Inhibition of proliferation of T lymphocytic leukemia cells Jurkat (cell viability assay, 96 h); assay type: cell-based, human; conditions: read-out: inhibitory activity (IC50) against tumor cells proliferation, Jurkat
Method: as §1, §2, §3

T2 sequence (Q13422 whole entry): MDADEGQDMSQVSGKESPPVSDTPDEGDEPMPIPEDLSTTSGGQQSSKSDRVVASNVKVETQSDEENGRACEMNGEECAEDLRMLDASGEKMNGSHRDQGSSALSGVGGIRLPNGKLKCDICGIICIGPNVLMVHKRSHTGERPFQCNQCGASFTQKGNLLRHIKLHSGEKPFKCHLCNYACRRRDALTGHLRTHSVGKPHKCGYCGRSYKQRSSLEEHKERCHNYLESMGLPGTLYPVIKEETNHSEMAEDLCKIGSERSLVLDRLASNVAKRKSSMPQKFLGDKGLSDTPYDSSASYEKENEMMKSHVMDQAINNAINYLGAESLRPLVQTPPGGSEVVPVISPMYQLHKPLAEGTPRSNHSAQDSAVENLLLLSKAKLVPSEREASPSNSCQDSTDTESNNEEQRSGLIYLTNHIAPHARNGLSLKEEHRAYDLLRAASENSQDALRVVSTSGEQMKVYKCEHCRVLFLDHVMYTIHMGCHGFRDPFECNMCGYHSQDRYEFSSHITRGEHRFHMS
T2 sequence (Q96SW2 whole entry): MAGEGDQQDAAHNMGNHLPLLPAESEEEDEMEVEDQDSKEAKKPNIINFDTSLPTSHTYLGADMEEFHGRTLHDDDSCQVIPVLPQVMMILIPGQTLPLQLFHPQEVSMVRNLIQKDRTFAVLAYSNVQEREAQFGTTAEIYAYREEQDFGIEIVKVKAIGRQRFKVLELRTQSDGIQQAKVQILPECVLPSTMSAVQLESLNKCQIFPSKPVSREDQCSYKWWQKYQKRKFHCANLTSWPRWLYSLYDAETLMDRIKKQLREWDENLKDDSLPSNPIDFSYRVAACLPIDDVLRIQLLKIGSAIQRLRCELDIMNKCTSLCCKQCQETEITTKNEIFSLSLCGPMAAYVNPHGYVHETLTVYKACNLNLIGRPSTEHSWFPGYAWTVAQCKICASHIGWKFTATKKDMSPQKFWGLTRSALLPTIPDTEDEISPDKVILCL
T2 sequence (Q16531 whole entry partner): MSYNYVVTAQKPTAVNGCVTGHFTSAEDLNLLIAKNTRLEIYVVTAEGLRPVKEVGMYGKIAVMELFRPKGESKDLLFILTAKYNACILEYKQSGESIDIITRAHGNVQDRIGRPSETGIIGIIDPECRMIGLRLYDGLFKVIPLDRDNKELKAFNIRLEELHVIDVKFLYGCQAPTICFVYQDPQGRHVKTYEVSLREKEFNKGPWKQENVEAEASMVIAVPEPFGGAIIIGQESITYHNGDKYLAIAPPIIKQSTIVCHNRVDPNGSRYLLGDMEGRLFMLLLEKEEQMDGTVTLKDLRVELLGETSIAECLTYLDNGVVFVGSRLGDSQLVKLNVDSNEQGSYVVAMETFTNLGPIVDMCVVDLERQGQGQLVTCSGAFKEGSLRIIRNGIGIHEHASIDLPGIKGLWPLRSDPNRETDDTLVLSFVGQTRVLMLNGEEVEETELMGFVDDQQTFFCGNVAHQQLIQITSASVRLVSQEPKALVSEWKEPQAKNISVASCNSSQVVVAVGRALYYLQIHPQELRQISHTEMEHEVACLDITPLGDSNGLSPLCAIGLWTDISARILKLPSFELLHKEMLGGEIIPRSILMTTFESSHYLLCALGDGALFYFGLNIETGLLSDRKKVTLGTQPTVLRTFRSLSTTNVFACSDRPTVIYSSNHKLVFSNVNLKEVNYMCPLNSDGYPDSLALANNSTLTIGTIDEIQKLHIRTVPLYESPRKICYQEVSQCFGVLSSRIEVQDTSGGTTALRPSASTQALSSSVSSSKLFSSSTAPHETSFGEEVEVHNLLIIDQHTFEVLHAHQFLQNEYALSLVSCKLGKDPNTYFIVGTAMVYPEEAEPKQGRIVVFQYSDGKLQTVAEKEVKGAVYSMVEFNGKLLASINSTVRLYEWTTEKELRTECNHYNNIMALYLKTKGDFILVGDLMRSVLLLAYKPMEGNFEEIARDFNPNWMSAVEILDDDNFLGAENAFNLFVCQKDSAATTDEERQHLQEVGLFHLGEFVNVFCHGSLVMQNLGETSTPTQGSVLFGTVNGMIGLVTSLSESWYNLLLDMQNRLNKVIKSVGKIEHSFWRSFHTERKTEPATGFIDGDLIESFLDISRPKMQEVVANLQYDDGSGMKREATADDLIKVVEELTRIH
T4 sequence (Q9UKT9 whole entry): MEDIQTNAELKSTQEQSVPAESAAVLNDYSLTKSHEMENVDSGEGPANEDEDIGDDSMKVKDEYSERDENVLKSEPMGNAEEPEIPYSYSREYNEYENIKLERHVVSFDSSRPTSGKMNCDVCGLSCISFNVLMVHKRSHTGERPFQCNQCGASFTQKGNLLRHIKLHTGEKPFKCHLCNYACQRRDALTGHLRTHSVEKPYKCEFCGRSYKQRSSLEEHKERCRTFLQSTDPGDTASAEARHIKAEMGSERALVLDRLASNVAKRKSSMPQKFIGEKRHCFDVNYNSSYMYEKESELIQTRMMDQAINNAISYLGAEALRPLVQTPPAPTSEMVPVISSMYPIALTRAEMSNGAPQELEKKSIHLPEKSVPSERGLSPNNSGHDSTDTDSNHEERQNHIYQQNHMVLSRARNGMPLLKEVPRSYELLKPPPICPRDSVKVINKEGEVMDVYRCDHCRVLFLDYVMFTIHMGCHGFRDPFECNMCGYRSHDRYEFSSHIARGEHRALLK
T4 sequence (Q96SW2 whole entry): as the sequence (Q96SW2 whole entry) above
T4 sequence (Q16531 whole entry partner): as the sequence (Q16531 whole entry partner) above
T1 sequence (P30291 whole entry): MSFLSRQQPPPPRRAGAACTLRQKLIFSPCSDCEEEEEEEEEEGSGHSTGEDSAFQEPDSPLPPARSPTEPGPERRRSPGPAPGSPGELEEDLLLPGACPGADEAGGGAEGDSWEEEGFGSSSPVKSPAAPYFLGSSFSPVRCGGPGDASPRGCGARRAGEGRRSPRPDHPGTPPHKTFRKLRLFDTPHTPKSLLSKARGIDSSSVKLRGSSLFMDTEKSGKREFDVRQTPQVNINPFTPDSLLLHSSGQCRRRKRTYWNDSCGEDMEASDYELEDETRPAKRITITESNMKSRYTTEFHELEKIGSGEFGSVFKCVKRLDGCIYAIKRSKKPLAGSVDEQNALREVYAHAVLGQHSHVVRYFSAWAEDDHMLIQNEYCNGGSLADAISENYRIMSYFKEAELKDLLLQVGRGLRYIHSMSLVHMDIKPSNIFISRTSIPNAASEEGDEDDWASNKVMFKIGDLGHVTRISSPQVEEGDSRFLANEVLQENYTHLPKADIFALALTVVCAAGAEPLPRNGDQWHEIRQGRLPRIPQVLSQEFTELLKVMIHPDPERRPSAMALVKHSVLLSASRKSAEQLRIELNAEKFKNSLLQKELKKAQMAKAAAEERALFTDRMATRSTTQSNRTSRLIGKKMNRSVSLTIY
T1 sequence (Q96SW2 whole entry): as the sequence (Q96SW2 whole entry) above
T1 sequence (Q16531 whole entry partner): as the sequence (Q16531 whole entry partner) above
T3 sequence (Q9UKS7 whole entry): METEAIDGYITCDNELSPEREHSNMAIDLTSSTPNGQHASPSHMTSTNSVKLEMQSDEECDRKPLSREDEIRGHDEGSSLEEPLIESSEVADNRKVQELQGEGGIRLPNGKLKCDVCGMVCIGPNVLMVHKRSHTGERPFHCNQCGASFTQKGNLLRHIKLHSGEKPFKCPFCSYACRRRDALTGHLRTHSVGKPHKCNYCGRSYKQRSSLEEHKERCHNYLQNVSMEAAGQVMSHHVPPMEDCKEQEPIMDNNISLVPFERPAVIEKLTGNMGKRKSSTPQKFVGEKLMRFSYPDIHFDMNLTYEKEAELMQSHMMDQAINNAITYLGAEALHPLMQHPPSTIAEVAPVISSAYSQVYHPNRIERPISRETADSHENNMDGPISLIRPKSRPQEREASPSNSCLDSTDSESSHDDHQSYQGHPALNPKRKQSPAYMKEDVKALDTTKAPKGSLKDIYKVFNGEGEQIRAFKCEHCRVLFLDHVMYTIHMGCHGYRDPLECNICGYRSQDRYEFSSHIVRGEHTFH
T3 sequence (Q96SW2 whole entry): as the sequence (Q96SW2 whole entry) above
T3 sequence (Q16531 whole entry partner): as the sequence (Q16531 whole entry partner) above
T6 sequence (P15170 whole entry): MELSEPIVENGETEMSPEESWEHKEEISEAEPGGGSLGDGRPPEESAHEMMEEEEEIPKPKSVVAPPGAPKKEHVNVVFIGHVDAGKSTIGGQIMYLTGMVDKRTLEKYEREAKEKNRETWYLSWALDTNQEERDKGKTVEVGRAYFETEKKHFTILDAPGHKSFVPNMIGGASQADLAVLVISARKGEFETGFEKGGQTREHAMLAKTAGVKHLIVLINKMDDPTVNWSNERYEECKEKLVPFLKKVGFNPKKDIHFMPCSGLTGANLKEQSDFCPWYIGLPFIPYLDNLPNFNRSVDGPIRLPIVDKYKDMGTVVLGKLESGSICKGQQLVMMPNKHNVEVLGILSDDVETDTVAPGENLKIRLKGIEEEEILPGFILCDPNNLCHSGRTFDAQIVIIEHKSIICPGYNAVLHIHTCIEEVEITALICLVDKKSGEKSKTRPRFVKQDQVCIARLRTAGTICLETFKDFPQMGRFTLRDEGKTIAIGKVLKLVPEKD
T6 sequence (Q96SW2 whole entry): as the sequence (Q96SW2 whole entry) above
T6 sequence (Q16531 whole entry partner): as the sequence (Q16531 whole entry partner) above

Structure (SMILES) | IC50 [1] | WEE1 substrate protein remaining % [2] | IKZF1 substrate protein remaining % [3] | IKZF2 substrate protein remaining % [4] | IKZF3 substrate protein remaining % [5] | CK1α substrate protein remaining % [6] | GSPT1 substrate protein remaining % [7] | IC50 [8] | IC50 [9]
O=C1CCN(N2Cc3cc(CN4CCN(c5ccccc5)CC4)ccc3C2=O)C(=O)N1 [GT-06696, 1-(1-oxo-5-((4-phenylpiperazin-1-yl)methyl)isoindolin-2-yl)dihydropyrimidine-2,4(1H,3H)-dione] | 0.1 to 0.3 µM | B (80%< substrate protein remaining % ≤100%) | B (80%< substrate protein remaining % ≤100%) | B (80%< substrate protein remaining % ≤100%) | B (80%< substrate protein remaining % ≤100%) | B (80%< substrate protein remaining % ≤100%) | A (0% ≤ substrate protein remaining % ≤80%) |  | 
O=C1CCN(N2Cc3cc(CN4CCN(c5cccc(Br)c5)CC4)ccc3C2=O)C(=O)N1 [GT-06698, 1-(5-((4-(3-bromophenyl)piperazin-1-yl)methyl)-1-oxoisoindolin-2-yl)dihydropyrimidine-2,4(1H,3H)-dione] | 0.1 to 0.3 µM | B (80%< substrate protein remaining % ≤100%) | B (80%< substrate protein remaining % ≤100%) | B (80%< substrate protein remaining % ≤100%) | B (80%< substrate protein remaining % ≤100%) | B (80%< substrate protein remaining % ≤100%) | A (0% ≤ substrate protein remaining % ≤80%) |  | 
COc1cccc(N2CCN(Cc3ccc4c(c3)CN(N3CCC(=O)NC3=O)C4=O)CC2)c1 [GT-06699, 1-(5-((4-(3-methoxyphenyl)piperazin-1-yl)methyl)-1-oxoisoindolin-2-yl)dihydropyrimidine-2,4(1H,3H)-dione] | 0.1 to 0.3 µM | B (80%< substrate protein remaining % ≤100%) | B (80%< substrate protein remaining % ≤100%) | B (80%< substrate protein remaining % ≤100%) | B (80%< substrate protein remaining % ≤100%) | B (80%< substrate protein remaining % ≤100%) | A (0% ≤ substrate protein remaining % ≤80%) |  | 
O=C1CCN(N2Cc3cc(CN4CCN(c5ccc(C(F)(F)F)cc5)CC4)ccc3C2=O)C(=O)N1 [GT-06700, 1-(1-oxo-5-((4-(4-(trifluoromethyl)phenyl)piperazin-1-yl)methyl)isoindolin-2-yl)dihydropyrimidine-2,4(1H,3H)-dione] | 0.05 to 0.1 µM |  |  |  |  |  |  |  | 
O=C1CCN(N2Cc3cc(CN4CCN(c5ccc(F)cc5)CC4)ccc3C2=O)C(=O)N1 [GT-06702, 1-(5-((4-(4-fluorophenyl)piperazin-1-yl)methyl)-1-oxoisoindolin-2-yl)dihydropyrimidine-2,4(1H,3H)-dione] | 0.5 to 1 µM | B (80%< substrate protein remaining % ≤100%) | B (80%< substrate protein remaining % ≤100%) | B (80%< substrate protein remaining % ≤100%) | B (80%< substrate protein remaining % ≤100%) | A (0% ≤ substrate protein remaining % ≤80%) | A (0% ≤ substrate protein remaining % ≤80%) |  | 
O=C1CCN(N2Cc3cc(CN4CC=C(c5ccnc(Cl)c5Cl)CC4)ccc3C2=O)C(=O)N1 [GT-07432, 1-(5-((2′,3′-dichloro-3,6-dihydro-[4,4′-bipyridin]-1(2H)-yl)methyl)-1-oxoisoindolin-2-yl)dihydropyrimidine-2,4(1H,3H)-dione] |  | A (0% ≤ substrate protein remaining % ≤80%) | A (0% ≤ substrate protein remaining % ≤80%) | A (0% ≤ substrate protein remaining % ≤80%) | A (0% ≤ substrate protein remaining % ≤80%) | A (0% ≤ substrate protein remaining % ≤80%) | A (0% ≤ substrate protein remaining % ≤80%) | 0.3 to 0.5 µM | 0.5 to 1 µM
O=C1CCN(N2Cc3cc(CN4CCC(c5cccs5)CC4)ccc3C2=O)C(=O)N1 [GT-07511, 1-(1-oxo-5-((4-(thiophen-2-yl)piperidin-1-yl)methyl)isoindolin-2-yl)dihydropyrimidine-2,4(1H,3H)-dione] |  | A (0% ≤ substrate protein remaining % ≤80%) | A (0% ≤ substrate protein remaining % ≤80%) | A (0% ≤ substrate protein remaining % ≤80%) | B (80%< substrate protein remaining % ≤100%) | A (0% ≤ substrate protein remaining % ≤80%) | A (0% ≤ substrate protein remaining % ≤80%) | 0.5 to 1 µM | 0.5 to 1 µM
Cn1cc(C2CCN(Cc3ccc4c(c3)CN(N3CCC(=O)NC3=O)C4=O)CC2)c2ccc(F)cc21 [GT-07575, 1-(5-((4-(6-fluoro-1-methyl-1H-indol-3-yl)piperidin-1-yl)methyl)-1-oxoisoindolin-2-yl)dihydropyrimidine-2,4(1H,3H)-dione] |  | A (0% ≤ substrate protein remaining % ≤80%) | A (0% ≤ substrate protein remaining % ≤80%) | A (0% ≤ substrate protein remaining % ≤80%) | A (0% ≤ substrate protein remaining % ≤80%) | A (0% ≤ substrate protein remaining % ≤80%) | A (0% ≤ substrate protein remaining % ≤80%) | 0.1 to 0.3 µM | 0.1 to 0.3 µM
O=C1CCN(N2Cc3cc(CN4CC=C(c5c[nH]c6ncccc56)CC4)ccc3C2=O)C(=O)N1 [GT-07577, 1-(5-((4-(1H-pyrrolo[2,3-b]pyridin-3-yl)-3,6-dihydropyridin-1 (2H)-yl)methyl)-1-oxoisoindolin-2-yl)dihydropyrimidine-2,4(1H,3H)-dione] |  | A (0% ≤ substrate protein remaining % ≤80%) | A (0% ≤ substrate protein remaining % ≤80%) | B (80%< substrate protein remaining % ≤100%) | A (0% ≤ substrate protein remaining % ≤80%) | A (0% ≤ substrate protein remaining % ≤80%) | A (0% ≤ substrate protein remaining % ≤80%) | 0.3 to 0.5 µM | 0.5 to 1 µM
O=C1CCN(N2Cc3cc(CN4CC=C(c5n[nH]c6cc(F)ccc56)CC4)ccc3C2=O)C(=O)N1 [GT-07578, 1-(5-((4-(6-fluoro-1H-indazol-3-yl)-3,6-dihydropyridin-1(2H)-yl)methyl)-1-oxoisoindolin-2-yl)dihydropyrimidine-2,4(1H,3H)-dione] |  | A (0% ≤ substrate protein remaining % ≤80%) | A (0% ≤ substrate protein remaining % ≤80%) | A (0% ≤ substrate protein remaining % ≤80%) | B (80%< substrate protein remaining % ≤100%) | B (80%< substrate protein remaining % ≤100%) | A (0% ≤ substrate protein remaining % ≤80%) | 0.05 to 0.1 µM | 0.05 to 0.1 µM
O=C1CCN(N2Cc3cc(CN4CC=C(c5cccc6c(F)cccc56)CC4)ccc3C2=O)C(=O)N1 [GT-07590, 1-(5-((4-(5-fluoronaphthalen-1-yl)-3,6-dihydropyridin-1(2H)-yl)methyl)-1-oxoisoindolin-2-yl)dihydropyrimidine-2,4(1H,3H)-dione] |  | A (0% ≤ substrate protein remaining % ≤80%) | A (0% ≤ substrate protein remaining % ≤80%) | A (0% ≤ substrate protein remaining % ≤80%) | A (0% ≤ substrate protein remaining % ≤80%) | B (80%< substrate protein remaining % ≤100%) | A (0% ≤ substrate protein remaining % ≤80%) | 0.01 to 0.05 µM | 0.05 to 0.1 µM
